Measurements taken from patent US20250092016A1, “COMPOUNDS AND COMPOSITIONS FOR THE TREATMENT OF CORONAVIRAL RELATED DISEASES” (priority 2021, published 2025).

Molecular target: SARS-CoV-2 main protease (M^pro) (Severe acute respiratory syndrome coronavirus 2, UniProt P0DTD1)
Assay: Rapid-Fire MS Biochemical Assay measuring Mpro activity (5 nM Mpro)
Details: Table 1B, Mpro inhibition, 5 μM substrate peptide, 120 min, read-out: Rapid-Fire Assay IC50

| SMILES | IC50 [nM] |
| --- | --- |
| COc1ccc(C#N)cc1N1C[C@@H](C#N)N(c2cncc3ccccc23)C1=O (single isomer, unassigned) [Compound 15b] | > 1000 |
| N#C[C@H]1CN(c2ncc(Cl)cn2)C(=O)N1c1cncc2ccccc12 (single isomer, unassigned) [Compound 16a] | < 20 |
| N#C[C@@H]1CN(c2ncc(Cl)cn2)C(=O)N1c1cncc2ccccc12 (single isomer, unassigned) [Compound 16b] | 200 to 1000 |
| COc1ccc(C(F)(F)F)cc1N1C[C@H](C#N)N(c2cncc3ccccc23)C1=O (single isomer, unassigned) [Compound 17a] | < 20 |
| COc1ccc(C(F)(F)F)cc1N1C[C@@H](C#N)N(c2cncc3ccccc23)C1=O (single isomer, unassigned) [Compound 17b] | > 1000 |
| N#Cc1cc(C(F)(F)F)ncc1N1C[C@H](C#N)N(c2cncc3ccccc23)C1=O (single isomer, unassigned) [Compound 18a] | < 20 |
| N#Cc1cc(C(F)(F)F)ncc1N1C[C@@H](C#N)N(c2cncc3ccccc23)C1=O (single isomer, unassigned) [Compound 18b] | > 1000 |
| COc1cc(C#N)ccc1N1C[C@H](C#N)N(c2cncc3ccccc23)C1=O (single isomer, unassigned) [Compound 19a] | < 20 |
| COc1cc(C#N)ccc1N1C[C@@H](C#N)N(c2cncc3ccccc23)C1=O (single isomer, unassigned) [Compound 19b] | > 1000 |
| N#Cc1ccc(Cl)cc1N1C[C@H](C#N)N(c2cncc3ccccc23)C1=O (single isomer, unassigned) [Compound 20a] | < 20 |
| N#Cc1ccc(Cl)cc1N1C[C@@H](C#N)N(c2cncc3ccccc23)C1=O (single isomer, unassigned) [Compound 20b] | > 1000 |
| Cc1ccc(F)cc1N1C[C@H](C#N)N(c2cncc3ccccc23)C1=O (single isomer, unassigned) [Compound 21a] | < 20 |
| Cc1ccc(F)cc1N1C[C@@H](C#N)N(c2cncc3ccccc23)C1=O (single isomer, unassigned) [Compound 21b] | > 1000 |
| N#C[C@H]1CN(c2cccc(C(F)F)c2)C(=O)N1c1cncc2ccccc12 (single isomer, unassigned) [Compound 22a] | < 20 |
| N#C[C@@H]1CN(c2cccc(C(F)F)c2)C(=O)N1c1cncc2ccccc12 (single isomer, unassigned) [Compound 22b] | > 1000 |
| COc1cc(N2C[C@H](C#N)N(c3cncc4ccccc34)C2=O)ccn1 (single isomer, unassigned) [Compound 23a] | < 20 |
| COc1cc(N2C[C@@H](C#N)N(c3cncc4ccccc34)C2=O)ccn1 (single isomer, unassigned) [Compound 23b] | > 1000 |
| Cc1ccc(C(F)(F)F)cc1N1C[C@H](C#N)N(c2cncc3ccccc23)C1=O (single isomer, unassigned) [Compound 24a] | < 20 |
| Cc1ccc(C(F)(F)F)cc1N1C[C@@H](C#N)N(c2cncc3ccccc23)C1=O (single isomer, unassigned) [Compound 24b] | > 1000 |
| N#C[C@H]1CN([C@@H]2CCN(C(=O)CO)C2)C(=O)N1c1cncc2ccccc12 (single isomer, unassigned) [Compound 25a] | 200 to 1000 |

| SMILES | IC50 [nM] |
| --- | --- |
| N#C[C@@H]1CN([C@@H]2CCN(C(=O)CO)C2)C(=O)N1c1cncc2ccccc12 (single isomer, unassigned) [Compound 25b] | > 1000 |
| N#C[C@H]1CN([C@@H]2CCN(CCC(F)(F)F)C2)C(=O)N1c1cncc2ccccc12 (single isomer, unassigned) [Compound 26a] | 200 to 1000 |
| N#C[C@@H]1CN([C@@H]2CCN(CCC(F)(F)F)C2)C(=O)N1c1cncc2ccccc12 (single isomer, unassigned) [Compound 26b] | > 1000 |
| N#C[C@H]1CN(c2cc(C(F)(F)F)cnn2)C(=O)N1c1cncc2ccccc12 (single isomer, unassigned) [Compound 30a] | < 20 |
| N#C[C@@H]1CN(c2cc(C(F)(F)F)cnn2)C(=O)N1c1cncc2ccccc12 (single isomer, unassigned) [Compound 30b] | > 1000 |
| COc1cnc(C(F)(F)F)nc1N1C[C@H](C#N)N(c2cncc3ccccc23)C1=O (single isomer, unassigned) [Compound 31a] | 20 to 200 |
| COc1cnc(C(F)(F)F)nc1N1C[C@@H](C#N)N(c2cncc3ccccc23)C1=O (single isomer, unassigned) [Compound 31b] | > 1000 |
| N#C[C@H]1CN(c2cnc(C(F)(F)F)cn2)C(=O)N1c1cncc2ccccc12 (single isomer, unassigned) [Compound 32a] | < 20 |
| N#C[C@@H]1CN(c2cnc(C(F)(F)F)cn2)C(=O)N1c1cncc2ccccc12 (single isomer, unassigned) [Compound 32b] | > 1000 |
| N#C[C@H]1CN(c2cccc(Cl)c2)C(=O)N1c1cncc2ccc(C(=O)O)cc12 (single isomer, unassigned) [Compound 33a] | < 20 |
| N#C[C@@H]1CN(c2cccc(Cl)c2)C(=O)N1c1cncc2ccc(C(=O)O)cc12 (single isomer, unassigned) [Compound 33b] | > 1000 |
| CS(=O)(=O)c1ccc2cncc(N3C(=O)N(c4cccc(Cl)c4)C[C@@H]3C#N)c2c1 (single isomer, unassigned) [Compound 37a] | < 20 |
| CS(=O)(=O)c1ccc2cncc(N3C(=O)N(c4cccc(Cl)c4)C[C@H]3C#N)c2c1 (single isomer, unassigned) [Compound 37b] | > 1000 |
| COc1ccc(C(F)(F)F)cc1N1C[C@H](C#N)N(c2cncc3ccc(S(C)(=O)=O)cc23)C1=O (single isomer, unassigned) [Compound 38a] | < 20 |
| COc1ccc(C(F)(F)F)cc1N1C[C@@H](C#N)N(c2cncc3ccc(S(C)(=O)=O)cc23)C1=O (single isomer, unassigned) [Compound 38b] | > 1000 |
| N#Cc1ccc2cncc(N3C(=O)N(c4cccc(Cl)c4)C[C@@H]3C#N)c2c1 (single isomer, unassigned) [Compound 39a] | < 20 |
| N#Cc1ccc2cncc(N3C(=O)N(c4cccc(Cl)c4)C[C@H]3C#N)c2c1 (single isomer, unassigned) [Compound 39b] | > 1000 |
| C[C@]1(C#N)CN(c2cccc(Cl)c2)C(=O)N1c1cncc2ccccc12 (single isomer, unassigned) [Compound 40a] | 200 to 1000 |
| C[C@@]1(C#N)CN(c2cccc(Cl)c2)C(=O)N1c1cncc2ccccc12 (single isomer, unassigned) [Compound 40b] | > 1000 |
| N#C[C@H]1CN(c2ccc(Cl)cn2)C(=O)N1c1cncc2ccccc12 (single isomer, unassigned) [Compound 41a] | < 20 |

| SMILES | IC50 [nM] |
| --- | --- |
| N#C[C@@H]1CN(c2ccc(Cl)cn2)C(=O)N1c1cncc2ccccc12 (single isomer, unassigned) [Compound 41b] | 200 to 1000 |
| N#C[C@H]1CN(c2ncc(C(F)(F)F)cn2)C(=O)N1c1cncc2ccccc12 (single isomer, unassigned) [Compound 42a] | < 20 |
| N#C[C@@H]1CN(c2ncc(C(F)(F)F)cn2)C(=O)N1c1cncc2ccccc12 (single isomer, unassigned) [Compound 42b] | > 1000 |
| C[C@H]1[C@H](C#N)N(c2cncc3ccccc23)C(=O)N1c1cccc(Cl)c1 (single isomer, unassigned) [Compound 43a] | < 20 |
| C[C@H]1[C@@H](C#N)N(c2cncc3ccccc23)C(=O)N1c1cccc(Cl)c1 (single isomer, unassigned) [Compound 43b] | 200 to 1000 |
| Cc1cc(N2C[C@H](C#N)N(c3cncc4ccccc34)C2=O)ccn1 (single isomer, unassigned) [Compound 44a] | 20 to 200 |
| Cc1cc(N2C[C@@H](C#N)N(c3cncc4ccccc34)C2=O)ccn1 (single isomer, unassigned) [Compound 44b] | > 1000 |
| N#C[C@H]1CN([C@@H]2CCN(CCO)C2)C(=O)N1c1cncc2ccccc12 (single isomer, unassigned) [Compound 46a] | > 1000 |
| N#C[C@@H]1CN([C@@H]2CCN(CCO)C2)C(=O)N1c1cncc2ccccc12 (single isomer, unassigned) [Compound 46b] | > 1000 |
| COc1ccc(C(F)(F)F)nc1N1C[C@H](C#N)N(c2cncc3ccccc23)C1=O (single isomer, unassigned) [Compound 47a] | 20 to 200 |
| COc1ccc(C(F)(F)F)nc1N1C[C@@H](C#N)N(c2cncc3ccccc23)C1=O (single isomer, unassigned) [Compound 47b] | > 1000 |
| CS(=O)(=O)c1cccc(N2C[C@H](C#N)N(c3cncc4ccccc34)C2=O)c1 (single isomer, unassigned) [Compound 48a] | < 20 |
| CS(=O)(=O)c1cccc(N2C[C@@H](C#N)N(c3cncc4ccccc34)C2=O)c1 (single isomer, unassigned) [Compound 48b] | > 1000 |
| N#C[C@H]1CN(c2nccc(C(F)(F)F)n2)C(=O)N1c1cncc2ccccc12 (single isomer, unassigned) [Compound 49a] | 20 to 200 |
| N#C[C@@H]1CN(c2nccc(C(F)(F)F)n2)C(=O)N1c1cncc2ccccc12 (single isomer, unassigned) [Compound 49b] | > 1000 |
| N#Cc1ccc(N2C[C@H](C#N)N(c3cncc4ccccc34)C2=O)cc1 (single isomer, unassigned) [Compound 50a] | < 20 |
| N#Cc1ccc(N2C[C@@H](C#N)N(c3cncc4ccccc34)C2=O)cc1 (single isomer, unassigned) [Compound 50b] | > 1000 |
| N#C[C@H]1CN(c2cccc(C(F)(F)F)n2)C(=O)N1c1cncc2ccccc12 (single isomer, unassigned) [Compound 51a] | 20 to 200 |
| N#C[C@@H]1CN(c2cccc(C(F)(F)F)n2)C(=O)N1c1cncc2ccccc12 (single isomer, unassigned) [Compound 51b] | > 1000 |
| N#Cc1cccc(N2C[C@H](C#N)N(c3cncc4ccccc34)C2=O)c1 (single isomer, unassigned) [Compound 52a] | < 20 |
